Data: ChEMBL document CHEMBL1123560, “Novel 1H-benzimidazol-4-ols with potent 5-lipoxygenase inhibitory activity” (J Med Chem, 1987)
One block for each compound: values may come before it.

Columns and labels:
[1] = target: T1, Polyunsaturated fatty acid 5-lipoxygenase (Rattus norvegicus, UniProt P12527); assay: In vitro inhibition of RBL-1 5-lipoxygenase; Value ranges from 1.4-3.2; assay type: cell-based
T1 sequence (P12527 whole entry): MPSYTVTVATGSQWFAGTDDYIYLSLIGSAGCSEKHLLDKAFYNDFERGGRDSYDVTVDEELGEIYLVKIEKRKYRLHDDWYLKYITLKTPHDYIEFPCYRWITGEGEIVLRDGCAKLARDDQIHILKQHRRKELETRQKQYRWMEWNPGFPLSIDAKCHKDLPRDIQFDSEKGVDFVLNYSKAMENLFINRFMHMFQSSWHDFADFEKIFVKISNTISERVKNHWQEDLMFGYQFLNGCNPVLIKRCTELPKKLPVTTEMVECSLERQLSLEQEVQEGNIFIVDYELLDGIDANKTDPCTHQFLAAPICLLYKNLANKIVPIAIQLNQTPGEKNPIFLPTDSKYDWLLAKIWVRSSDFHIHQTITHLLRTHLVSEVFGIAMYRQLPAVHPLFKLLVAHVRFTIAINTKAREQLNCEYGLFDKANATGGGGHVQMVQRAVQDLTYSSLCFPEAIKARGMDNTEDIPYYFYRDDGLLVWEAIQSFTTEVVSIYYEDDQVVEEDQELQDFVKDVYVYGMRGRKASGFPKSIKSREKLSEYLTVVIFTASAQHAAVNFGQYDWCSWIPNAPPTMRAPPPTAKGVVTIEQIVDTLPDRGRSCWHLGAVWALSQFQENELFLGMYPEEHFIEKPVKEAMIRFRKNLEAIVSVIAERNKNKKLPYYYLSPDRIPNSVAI

[2] = target: T1, Polyunsaturated fatty acid 5-lipoxygenase; assay: In vitro inhibition of RBL-1 5-lipoxygenase; assay type: cell-based
[3] = target: T1, Polyunsaturated fatty acid 5-lipoxygenase; assay: In vitro inhibition of RBL-1 5-lipoxygenase; Value ranges from 1.0-2.4; assay type: cell-based
[4] = target: T1, Polyunsaturated fatty acid 5-lipoxygenase; assay: In vitro inhibition of RBL-1 5-lipoxygenase; Value ranges from 1.0-1.7; assay type: cell-based
[5] = target: T2, Polyunsaturated fatty acid 5-lipoxygenase (Rattus norvegicus) (UniProt P12527); assay: In vitro inhibition of RBL-1 5-lipoxygenase at 20 uM; assay type: cell-based
T2 sequence (whole entry): T1 sequence (P12527 whole entry)

[6] = target: T1, Polyunsaturated fatty acid 5-lipoxygenase; assay: In vitro inhibition of RBL-1 5-lipoxygenase; Value ranges from 2.46-2.63; assay type: cell-based
[7] = target: T1, Polyunsaturated fatty acid 5-lipoxygenase; assay: In vitro inhibition of RBL-1 5-lipoxygenase; Value ranges from 1.0-1.5; assay type: cell-based
[8] = target: T1, Polyunsaturated fatty acid 5-lipoxygenase; assay: In vitro inhibition of RBL-1 5-lipoxygenase; Value ranges from 1.8-5.7; assay type: cell-based
Rattus norvegicus [9] = assay: Inhibition of monocyte accumulation (exudate volume) in a rat pleural exudate model of inflammation at 24 ug/kg administered perorally; assay type: functional; conditions: po
Rattus norvegicus [10] = assay: Inhibition of monocyte accumulation (exudate volume) in a rat pleural exudate model of inflammation at 3 ug/kg administered perorally; assay type: functional; conditions: po
Rattus norvegicus [11] = assay: Inhibition of monocyte accumulation (exudate volume) in a rat pleural exudate model of inflammation at 6 ug/kg administered perorally; assay type: functional; conditions: po
Rattus norvegicus [12] = assay: Inhibition of monocyte accumulation (DNA content) in a rat pleural exudate model of inflammation at 45 ug administered perorally; assay type: functional
Rattus norvegicus [13] = assay: Inhibition of monocyte accumulation (exudate volume) in a rat pleural exudate model of inflammation at 45 ug administered perorally; assay type: functional
Rattus norvegicus [14] = assay: (§1) In vivo activity against the release of SRS(slow releasing substance)-A in a rat passive intraperitoneally; assay type: functional; design: concentration or dose not given beside the values
[15] = target: T1, Polyunsaturated fatty acid 5-lipoxygenase; assay: In vitro inhibition of RBL-1 5-lipoxygenase; Value ranges from 4.9-11.6; assay type: cell-based
[16] = target: T1, Polyunsaturated fatty acid 5-lipoxygenase; assay: In vitro inhibition of RBL-1 5-lipoxygenase; Value ranges from 0.3-1.6; assay type: cell-based
[17] = target: T1, Polyunsaturated fatty acid 5-lipoxygenase; assay: In vitro inhibition of RBL-1 5-lipoxygenase; Value ranges from 1.3-2.8; assay type: cell-based
[18] = target: T1, Polyunsaturated fatty acid 5-lipoxygenase; assay: In vitro inhibition of RBL-1 5-lipoxygenase; Value ranges from […]; assay type: cell-based
Rattus norvegicus [19] = assay: as §1; assay type: functional
[20] = target: T1, Polyunsaturated fatty acid 5-lipoxygenase; assay: In vitro inhibition of RBL-1 5-lipoxygenase; Value ranges from 1.7-2.6; assay type: cell-based
[21] = target: T1, Polyunsaturated fatty acid 5-lipoxygenase; assay: In vitro inhibition of RBL-1 5-lipoxygenase; Value ranges from 3.8-7.1; assay type: cell-based
[22] = target: T1, Polyunsaturated fatty acid 5-lipoxygenase; assay: In vitro inhibition of RBL-1 5-lipoxygenase; Value ranges from 0.9-4.0; assay type: cell-based
[23] = target: T1, Polyunsaturated fatty acid 5-lipoxygenase; assay: In vitro inhibition of RBL-1 5-lipoxygenase; Value ranges from 3.3-3.5; assay type: cell-based
[24] = target: T1, Polyunsaturated fatty acid 5-lipoxygenase; assay: In vitro inhibition of RBL-1 5-lipoxygenase; Value ranges from 1.1-1.6; assay type: cell-based
[25] = target: T1, Polyunsaturated fatty acid 5-lipoxygenase; assay: In vitro inhibition of RBL-1 5-lipoxygenase; Value ranges from 7.5-11.8; assay type: cell-based
[26] = target: T1, Polyunsaturated fatty acid 5-lipoxygenase; assay: In vitro inhibition of RBL-1 5-lipoxygenase; Value ranges from 1.8-2.8; assay type: cell-based
[27] = target: T1, Polyunsaturated fatty acid 5-lipoxygenase; assay: In vitro inhibition of RBL-1 5-lipoxygenase; Value ranges from 4.0-6.4; assay type: cell-based
[28] = target: T1, Polyunsaturated fatty acid 5-lipoxygenase; assay: In vitro inhibition of RBL-1 5-lipoxygenase; Value ranges from 0.4-2.2; assay type: cell-based
[29] = target: T1, Polyunsaturated fatty acid 5-lipoxygenase; assay: In vitro inhibition of RBL-1 5-lipoxygenase; Value ranges from 1.9-2.4; assay type: cell-based

IC50 [1]: 2200 nM
Compound: COc1ccc(-c2nc3c(C)ccc(O)c3[nH]2)cc1

IC50 [2]: 20000 nM
Compound: COc1ccc(Cc2nc3c(O)cccc3[nH]2)cc1

IC50 [2]: ~10000 nM
Compound: CCCc1nc2c(C)ccc(O)c2[nH]1

IC50 [3]: 1700 nM
Compound: COc1cccc(Cc2nc3c(C)ccc(O)c3[nH]2)c1

IC50 [4]: 1300 nM
Compound: Cc1ccc(O)c2[nH]c(-c3ccc(N(C)C)cc3)nc12

inhibition [5]: > 90%
Compound: Cc1ccc(O)c2[nH]c(Cc3ccc4ccccc4c3)nc12

IC50 [6]: 2540 nM
Compound: Cc1ccc(Cc2nc3c(O)ccc(C)c3[nH]2)cc1

IC50 [2]: 20000 nM
Compound: Oc1cccc2[nH]c(Cc3ccccc3)nc12

IC50 [7]: 1200 nM
Compound: Cc1ccc(O)c2[nH]c(-c3ccccc3)nc12

IC50 [8]: 3300 nM
Compound: Cc1ccc(O)c2[nH]c(-c3ccco3)nc12

Compound: Cc1cc(C(C)(C)C)c(O)c2[nH]c(C(F)(F)F)nc12
inhibition in vivo at 0.024 mg/kg (Rattus norvegicus [9]): 48%
inhibition in vivo at 0.003 mg/kg (Rattus norvegicus [10]): 52%
inhibition in vivo at 0.006 mg/kg (Rattus norvegicus [11]): 49%

Compound: C[C@@H]1C[C@H]2[C@@H]3CCC4=CC(=O)C=C[C@]4(C)[C@@]3(F)[C@@H](O)C[C@]2(C)[C@@]1(O)C(=O)CO [DEXAMETHASONE]
Inhibition (Rattus norvegicus [12]): 71%
Inhibition (Rattus norvegicus [13]): 80%

IC50 [2]: 2000 nM
Compound: CC1=C(C)C(=O)C(CCCCC#CCCCC#CCO)=C(C)C1=O [DOCEBENONE]
Inhibition (Rattus norvegicus [14]): 77%

IC50 [15]: 6900 nM
Compound: Cc1ccc(O)c2[nH]c(Cc3ccc(O)cc3)nc12.Cl
Inhibition (Rattus norvegicus [14]): 58%

IC50 [16]: 1000 nM
Compound: Cc1ccc(O)c2[nH]c(Cc3ccc(Cl)cc3)nc12

IC50 [17]: 2100 nM
Compound: Cc1ccc(O)c2[nH]c(CCc3ccccc3)nc12

Compound: CCOc1ccc(Cc2nc3c(C)ccc(O)c3[nH]2)cc1
IC50 [18]: 3000 nM

IC50 [20]: 2100 nM
Compound: COc1ccc(Cc2nc3c(C)ccc(O)c3[nH]2)cc1.Cl
Inhibition (Rattus norvegicus [19]): 58%

IC50 [21]: 5200 nM
Compound: COc1ccc(Cc2nc3c(C)ccc(O)c3[nH]2)cc1OC.Cl
Inhibition (Rattus norvegicus [14]): 55%

IC50 [22]: 2200 nM
Compound: COc1ccc(Cc2nc3c(C)cc(C(C)(C)C)c(O)c3[nH]2)cc1

IC50 [23]: 3400 nM
Compound: COc1ccccc1Cc1nc2c(C)ccc(O)c2[nH]1.Cl
Inhibition (Rattus norvegicus [14]): 64%

IC50 [24]: 1300 nM
Compound: Cc1cc(C(C)(C)C)c(O)c2[nH]c(Cc3ccccc3)nc12

Compound: CC(Cc1ccc(O)c(O)c1)C(C)Cc1ccc(O)c(O)c1 (stereo not given) [NORDIHYDROGUAIARETIC ACID]
Inhibition (Rattus norvegicus [14]): 64%

IC50 [25]: 9700 nM
Compound: COc1cc(Cc2nc3c(C)ccc(O)c3[nH]2)cc(OC)c1OC.Cl
Inhibition (Rattus norvegicus [14]): 59%

IC50 [26]: 2300 nM
Compound: Cc1ccc(O)c2[nH]c(Cc3cccc4ccccc34)nc12

Compound: O=C1CCN(c2ccccc2)N1 [PHENIDONE]
Inhibition (Rattus norvegicus [14]): 70%

inhibition [5]: > 90%
Compound: Cc1ccc(O)c2[nH]c(-c3cccc(C(F)(F)F)c3)nc12

IC50 [27]: 5000 nM
Compound: Cc1ccc(O)c2nc(Cc3cccnc3)[nH]c12

IC50 [28]: 1200 nM
Compound: Cc1ccc(O)c2nc(Cc3ccccc3)[nH]c12

IC50 [29]: 2100 nM
Compound: Cc1ccc(O)c2[nH]c(Cc3cccs3)nc12

Compound: NC1=NN(c2cccc(C(F)(F)F)c2)CC1 [BW-755C]
Inhibition (Rattus norvegicus [14]): 25%
